Reference: patent publication US20250073358A1, “AROMATIC VINYL COMPOUND, METAL COMPLEX THEREOF, AND PREPARATION METHOD THEREFOR AND USE THEREOF” (SHANGHAI MAXINOVEL PHARMACEUTICALS CO., LTD., priority 2021, published 2025)

How the values were obtained:
PD-1/PD-L1 = PD-1/PD-L1 (Homo sapiens (Human), UniProt Q9NZQ7); experiment: Homogenouse Time-Resolved Fluorescence (HTRF) binding assay, PD-1/PD-L1
Method: Homogenouse Time-Resolved Fluorescence (HTRF) binding assay was used to detect the binding ability of the compound of the present disclosure to PD-1/PD-L1.
The purchased kit (CisBio, #64CUS000C-1) contains reagents required for experiments such as PD-1, PD-L1, anti-tag1-Eu, Anti-tag2-XL665, Dilute Buffer, and Detection Buffer.
• 1. The compound was configured with 100% DMSO into 10 concentrations with a concentration gradient of 3 times. • 2. The DMSO solution of the compound was added to Dilute Buffer solution, and the mixture was mixed well and transferred to a 96-well plate. • 3. PD-L1 was diluted with Dilute Buffer solution and then added to the above 96-well plate. • 4. PD-1 was diluted with Dilute Buffer solution and then added to the above 96-well plate, and incubated at room temperature for 30 minutes. • 5. One part of anti-tag1-Eu and one part of Anti-tag2-XL665 were added to Detection Buffer solution, and the mixture was mixed well and transferred to the above 96-well plate. • 6. The mixture in the 96-well plate was incubated at room temperature for 1 to 24 hours. • 7. The HTRF values were read with Envision.

[1] = test system: MC38-PDL1 tumor (MC-38-hPD-L1 cells); experiment: Tumor targeting study in Micro-PET/CT scanning, bilateral tumor model (Effect Embodiment 3), left tumor; assay type: in vivo, C57BL/6J mice; settings: Micro-PET/CT imaging, bilateral tumor mice
From the text: Tumor targeting study of compound 79 in Micro-PET/CT scanning 1. Experimental animal information: C57BL/6J mice, SPF grade; 15-21 g; model mouse construction: bilateral tumor • Construction of bilateral tumor model mice • Cell culture
(§1) Human-derived PD-L1 gene knock-in MC-38 cells (MC-38-hPD-L1 cells) were adherently cultured in vitro, and the culture conditions were DMEM medium plus 10% heat-inactivated fetal bovine serum and hygromycinB (final concentration was […]), and the cells were cultured at 37° C. with 5% CO2. Subculture of 2-3 times a week. When the cells were in the exponential growth phase, the cells were harvested, counted, and the left side of the mice was inoculated subcutaneously.
(§2) Mouse-derived MC-38 cells were adherently cultured in vitro, and the culture conditions were DMEM medium plus 10% heat-inactivated fetal bovine serum, and the cells were cultured at 37° C. with 5% CO2. Subculture of 2-3 times a week. When the cells were in the exponential growth phase, the cells were collected, counted, and the right side of the mice was inoculated subcutaneously.
(§3) 100 μL of 1×10^6 MC-38-hPD-L1 cell suspension was inoculated subcutaneously on the left dorsal side of C57BL/6J mice. The same mice were subcutaneously inoculated with 100 μL of 1×10^6 MC-38 cell suspension on the right dorsal side on the second day. After inoculation, the mice were fed normally, and after a certain number of days, tumor-bearing mice with the volume of bilateral transplanted tumor in the range of 150 mm^3−350 mm^3 were selected for test.
(§4) After quality control, compound 79 was diluted with 10% ethanol in physiological saline, and the drug was extracted and injected into each animal through tail vein. The administration volume was 100 μL/animal, and the administration dose was 100-200 μCi/animal. The study of Micro-PET/CT imaging was performed at 0.5 h, 1.5 h, 2.5 h, 3.5 h after injection of compound 79.

[2] = test system: MC38-PDL1 tumor (MC-38-hPD-L1 cells); experiment: Tumor targeting study in Micro-PET/CT scanning, bilateral tumor model (Effect Embodiment 4), left tumor; assay type: in vivo, C57BL/6J mice; settings: Micro-PET/CT imaging, bilateral tumor mice
Method: • Tumor targeting study of compound 80 in Micro-PET/CT scanning • Experimental animal information: C57BL/6J mice, SPF grade; 15-21 g; • Construction of Bilateral Tumor Model Mice: • Cell Culture
as §1, §2, §3
as §4, with “80” for “79”, “80.” for “79.”

PD-1/PD-L1, sequence (Q9NZQ7 19-238): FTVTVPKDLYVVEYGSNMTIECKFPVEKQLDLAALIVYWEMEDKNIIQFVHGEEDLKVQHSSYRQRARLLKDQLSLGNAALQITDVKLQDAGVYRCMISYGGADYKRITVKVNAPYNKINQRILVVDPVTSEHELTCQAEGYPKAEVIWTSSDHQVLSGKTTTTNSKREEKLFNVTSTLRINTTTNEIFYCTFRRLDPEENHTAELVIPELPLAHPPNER

SMILES | uptake value of left tumor (MC38-PDL1) compared with right tumor (MC38) [1] | IC50 (PD-1/PD-L1) [nM] | uptake value of left tumor (MC38-PDL1) compared with right tumor (MC38) [2]
Cc1c(/C=C/c2cc(OCCCCNC(=O)CN3CCN(CC(=O)[O-])CCN(CC(=O)[O-])CC3)c(CN3CCCC[C@H]3C(=O)O)cc2C(F)(F)F)cccc1-c1ccccc1.[Al+3].[F-] [Compound 62] | significantly higher | 0.529 | –
COc1cc(C(=O)Nc2cccc(-c3cccc(/C=C/c4cc(OCCOCCN5CCN6CCN(CC5)CC(=O)[O][Al]([F])[O]C(=O)C6)c(CN5CCCC[C@H]5C(=O)O)cc4C(F)(F)F)c3C)c2C)ncc1CN1CCCC[C@H]1C(=O)O [Compound 82] | significantly higher | – | –
N#Cc1c(-c2ccccc2)ccnc1/C=C/c1cc(OCCCCCN2CCN(CC(=O)[O-])CCN(CC(=O)[O-])CC2)c(CN2CCCC[C@H]2C(=O)O)cc1C(F)(F)F.[Al+3].[F-] [Compound 58] | significantly higher | – | –
Cc1c(/C=C/c2cc(OCCCCNC(=O)CN3CCN(CC(=O)O)CCN(CC(=O)O)CCN(CC(=O)O)CC3)c(CN3CCCC[C@H]3C(=O)O)cc2C(F)(F)F)cccc1-c1ccccc1 [Compound 8] | – | 0.522 | significantly higher
Cc1ccc(CCCC(=O)NCCCC[C@H](NC(=O)CN2CCN(CC(=O)O)CCN(CC(=O)O)CCN(CC(=O)O)CC2)C(=O)NCCCCCCOc2cc(/C=C/c3cccc(-c4ccccc4)c3C)c(C(F)(F)F)cc2CN2CCCC[C@H]2C(=O)O)cc1 [Compound 27] | – | 13.6 | significantly higher

More lines, main results first:

uptake value of left tumor (MC38-PDL1) compared with right tumor (MC38) [1] | SMILES | IC50 (PD-1/PD-L1) [nM] | uptake value of left tumor (MC38-PDL1) compared with right tumor (MC38) [2]
significantly higher | N#Cc1c(-c2ccccc2)ccnc1/C=C/c1cc(OCC2CCN(C(=O)CN3CCN(CC(=O)[O-])CCN(CC(=O)[O-])CC3)CC2)c(CN2CCCC[C@H]2C(=O)O)cc1C(F)(F)F.[Al+3].[F-] [Compound 60] | – | –
significantly higher | Cc1c(/C=C/c2cc(OCCCNC(=O)CN3CCN(CC(=O)O)CCN(CC(=O)O)CC3)c(CN3CCCC[C@H]3C(=O)O)cc2C(F)(F)F)cccc1-c1ccccc1 [Compound 64] | 0.7 | –
